# Test results from patent US20160296529A1, “AMINOTRIAZOLOPYRIDINE FOR USE IN THE TREATMENT OF INFLAMMATION, AND PHARMACEUTICAL COMPOSITIONS THEREOF” (priority 2012, published 2016).
# Columns and labels:
# rat CIA model = assay: CIA model 1 (rat collagen induced arthritis, clinical score); assay type: in vivo, Dark Agouti rats; design: key to Rat CIA Clinical Score: sum of 4 paws, each 0 = no symptoms to 4 = maximal; max 16; conditions: for activity in the CIA rat model: dosed alone
# Description: Complete Freund's adjuvant (CFA) and Incomplete Freund's adjuvant (IFA) were purchased from Difco. Bovine collagen type II (CII), lipopolysaccharide (LPS), and Enbrel® was obtained from Chondrex (Isle d'Abeau, France); Sigma (P4252, L'Isle d'Abeau, France), Whyett (25 mg injectable syringe, France), Acros Organics (Palo Alto, Calif.), respectively. All other reagents used were of reagent grade and all solvents were of analytical grade.
# Dark Agouti rats (male, 7-8 weeks old) were obtained from Harlan Laboratories (Melderslo, Netherlands). Rats were kept on a 12 hr light/dark cycle (0700-1900). Temperature was maintained at 22° C., and food and water were provided ad libitum.
# One day before the experiment, CII solution (2 mg/mL) was prepared with 0.05 M acetic acid and stored at 4° C. Just before the immunization, equal volumes of adjuvant (IFA) and CII were mixed by a homogenizer in a pre-cooled glass bottle in an ice water bath. Extra adjuvant and prolonged homogenization may be required if an emulsion was not formed. 0.2 mL of the emulsion was injected intradermally at the base of the tail of each rat on day 1, a second booster intradermal injection (CII solution at 2 mg/mL in CFA 0.1 mL saline) was performed on day 9. This immunization method was modified from published methods (Sims et al, 2004; Jou et al., 2005).
# The therapeutic effects of the compounds were tested in the rat CIA model. Rats were randomly divided into equal groups and each group contained 10 rats. All rats were immunized on day 1 and boosted on day 9. Therapeutic dosing lasts from day 16 to day 30. The negative control group was treated with vehicle (MC 0.5%) and the positive control group with Enbrel® (10 mg/kg, 3× week., s.c.). A compound of interest was typically tested at 3 doses, e.g. 6, 10, 60 mg/kg, q.d., p.o.
# Arthritis was scored according to the method of Khachigian 2006, Lin et al 2007 and Nishida et al. 2004). The swelling of each of the four paws was ranked with the arthritic score as follows: 0—no symptoms; 1—mild, but definite redness and swelling of one type of joint such as the ankle or wrist, or apparent redness and swelling limited to individual digits, regardless of the number of affected digits; 2—moderate redness and swelling of two or more types of joints; 3—severe redness and swelling of the entire paw including digits; 4—maximally inflamed limb with involvement of multiple joints (maximum cumulative clinical arthritis score 16 per animal) (Nishida et al., 2004).
# To permit the meta-analysis of multiple studies the clinical score values were normalised as follows:
# AUC of clinical score (AUC score): The area under the curve (AUC) from day 1 to day 14 was calculated for each individual rat. The AUC of each animal was divided by the average AUC obtained for the vehicle in the study from which the data on that animal was obtained and multiplied by 100 (i.e. the AUC was expressed as a percentage of the average vehicle AUC per study).
# Clinical score increase from day 1 to day 14 (End point score): The clinical score difference for each animal was divided by the average clinical score difference obtained for the vehicle in the study from which the data on that animal was obtained and multiplied by 100 (i.e. the difference was expressed as a percentage of the average clinical score difference for the vehicle per study).
# [1] = Single dose pharmacokinetics in animals, minipig; assay type: in vivo, Göttingen minipigs; conditions: after Formula II 30 mg/kg oral; for AUC: male, Göttingen, plasma, read-out: exposure (expressed as AUC)
# Description: Pharmacokinetic studies were performed in various animal species dosed with the compound according to Formula II to determine the exposure to the compound according to Formula I as well as its apparent terminal half life (T1/2), when possible.
# Sprague-Dawley rats (male, 200-250 g), CD1 mice (male, 25-30 g), Beagle dogs (male, 9-10 kg), Göttingen minipigs (male, 10-15 kg) and New Zealand White rabbits (male, 3-5 kg) were acclimatized for at least 7 days before treatment and were kept on a 12 hr light/dark cycle (07 h00-19 h00).
# Temperature was maintained at approximately 22° C., and food and water were provided ad libitum.
# The compound according to Formula II was formulated in 0.5% methylcellulose and dosed orally to 3 animals (or 3 mouse/time points) as a single esophageal gavage at dose ranging from 15 to 45 mg/kg under a dosing volume of 5 or 10 mL/kg.
# Blood samples were collected over a 24-h period via the jugular vein (dog, minipig), ear blood vessel (rabbit), cardiac puncture (mouse) or retro-orbital sinus (rat) with lithium heparin as anti-coagulant. Whole blood samples were centrifuged and the resulting plasma samples were stored at −20° C. pending analysis.
# Plasma concentrations of the compound according to Formula I and of the compound according to Formula II were determined by an LC-MS/MS method with a limit of quantification ≦10.0 ng/mL for both Formula I and Formula II for all species.
# Pharmacokinetic parameters were calculated using a statistical analysis package (WinNonLin (Pharsight, Sunnyvale, Calif.: CA 94086, USA).
# hepatocytes of mouse = assay: In vitro metabolism study in hepatocytes, mouse; assay type: in vitro ADME; conditions: mouse hepatocyte suspension, 24 h incubation of 100 μM [14C]-Formula II
# Description: Hepatocyte stability (Concentrations of the compound according to Formula II and its main metabolites (as % of total radioactivity) after 24 h incubation of 100 μM [^14C]-Compound according to Formula II in hepatocyte suspension of different species)
compound,measurement,setting,value
"O=C(Nc1nc2cccc(-c3ccc(CN4CCS(=O)(=O)CC4)cc3)n2n1)C1CC1 [Formula II, Cyclopropanecarboxylic acid {5-[4-(1,1-dioxo-thiomorpholin-4-ylmethyl)-phenyl]-[1,2,4]triazolo[1,5-a]pyridin-2-yl}-amide]",Rat CIA Clinical Score,"rat CIA model; Formula II 6 mg/kg, day 18",3.0
same,Rat CIA Clinical Score,"rat CIA model; Formula II 6 mg/kg, day 19",3.6
same,Rat CIA Clinical Score,"rat CIA model; Formula II 6 mg/kg, day 20",4.2
same,Rat CIA Clinical Score,"rat CIA model; Formula II 6 mg/kg, day 21",5.1
same,Rat CIA Clinical Score,"rat CIA model; Formula II 6 mg/kg, day 24",5.2
same,Rat CIA Clinical Score,"rat CIA model; Formula II 6 mg/kg, day 25",5.1
same,Rat CIA Clinical Score,"rat CIA model; Formula II 6 mg/kg, day 26",4.9
same,Rat CIA Clinical Score,"rat CIA model; Formula II 6 mg/kg, day 27",5.2
same,Rat CIA Clinical Score,"rat CIA model; Formula II 6 mg/kg, day 28",5.4
same,activity in the CIA rat model,rat CIA model,active
same,AUC,[1],19100 ng·h/mL
same,In vitro metabolic profile of Formula II (as % of total radioactivity),hepatocytes of mouse,at least 80%
same,In vitro metabolic profile of Formula II (as % of total radioactivity),hepatocytes of mouse; listed as drawing 10,85%
"Nc1nc2cccc(-c3ccc(CN4CCS(=O)(=O)CC4)cc3)n2n1 [Formula I, 5-[4-(1,1-Dioxothiomorpholin-4-ylmethyl)-phenyl]-[1,2,4]triazolo[1,5-a]pyridin-2-ylamine]",normalized clinical score values (calculated as AUC or as the difference from day 1 to day 14),rat CIA model; 60 mg/kg,statistically significant improvements
same,Rat CIA Clinical Score,"rat CIA model; Formula I 60 mg/kg, day 18",2.9
same,Rat CIA Clinical Score,"rat CIA model; Formula I 60 mg/kg, day 19",4.4
same,Rat CIA Clinical Score,"rat CIA model; Formula I 60 mg/kg, day 20",5.0
same,Rat CIA Clinical Score,"rat CIA model; Formula I 60 mg/kg, day 21",3.9
same,Rat CIA Clinical Score,"rat CIA model; Formula I 60 mg/kg, day 24",4.5
same,Rat CIA Clinical Score,"rat CIA model; Formula I 60 mg/kg, day 25",4.3
same,Rat CIA Clinical Score,"rat CIA model; Formula I 60 mg/kg, day 26",3.8
same,Rat CIA Clinical Score,"rat CIA model; Formula I 60 mg/kg, day 27",3.7
same,Rat CIA Clinical Score,"rat CIA model; Formula I 60 mg/kg, day 28",3.3
same,activity in the CIA rat model,rat CIA model,active
same,Ratio I/II of exposure (AUC Formula I : AUC Formula II),[1],0.88
same,AUC,[1],16700 ng·h/mL
same,In vitro metabolic profile of Formula II (as % of total radioactivity),hepatocytes of mouse,14%
